The values that follow come from patent publication US5614370A, “Assay to identify human C5a antagonists and agonists” (Merck & Co., Inc., priority 1994, dated 1997).

Entries after “also recorded” stand apart in the source; their conditions may differ. Read-outs that look alike come from different tables or passages of the source. Non-standard residues stand in square brackets, D forms with d. Residues, ends and D or L forms follow the SMILES beside them. 1Nal = N[C@@H](Cc1cccc2ccccc12)C(=O)O; NMeF = CN[C@@H](Cc1ccccc1)C(=O)O; Cha = N[C@@H](CC1CCCCC1)C(=O)O; dCha = N[C@H](CC1CCCCC1)C(=O)O

Assay [1] has as its target T1, C5a receptor (Homo sapiens, UniProt P21730).
T1 construct: followed by a 20 μL aliquot of neutrophil membrane; endogenous in cells
T1 sequence (P21730 1-350): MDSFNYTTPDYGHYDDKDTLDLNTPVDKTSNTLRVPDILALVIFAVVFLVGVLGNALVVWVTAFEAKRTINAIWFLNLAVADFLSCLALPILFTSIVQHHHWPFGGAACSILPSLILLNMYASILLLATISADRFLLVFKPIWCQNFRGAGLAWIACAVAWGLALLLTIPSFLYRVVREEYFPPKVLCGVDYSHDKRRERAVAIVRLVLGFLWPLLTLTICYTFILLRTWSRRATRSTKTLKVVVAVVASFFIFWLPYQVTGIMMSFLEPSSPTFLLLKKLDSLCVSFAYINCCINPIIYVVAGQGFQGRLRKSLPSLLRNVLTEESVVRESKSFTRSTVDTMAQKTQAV
Nature of the assay: Competition binding against 125I-labeled intact C5a on human neutrophil (PMN) membranes. The source says:
The affinity of these peptides is shown, for example, by radiolabeling intact C5a, and using the unlabeled peptide to compete the labeled C5a from C5a receptor binding sites on cellular membranes. Preparations of polymorphonuclear leukocytes (PMN's) are known to express the C5a receptor, (inhibition of the chemotactic response to C5a of this type of cell is one desirable utility for compounds identified by the instant assay). One method for preparing these membranes is described by Rollins, T. E. et al., [J. Biol. Chem. 264:520-526 (1988); see also U.S. Pat. No. 5,177,190, herein incorporated by reference as a method for isolating and purifying C5a receptor]. Briefly, this involves isolating PMN's in large quantity, disrupting these cells and obtaining the membrane fraction by centrifugation. Protein assay of the membrane preparation allows for standardization of the amount of protein added in any set of membrane binding experiments.
In FIG. 1, unlabeled C013 is used to compete with ^125 I-labeled C5a. […] In FIG. 2, the C013 is ^125 I labeled. Unlabeled C5a and unlabeled C013 are each used to compete the labeled C013 from C5a binding sites on the membranes. […] In FIG. 3a, ^125 I-C5a is competed from its binding site by unlabeled C064 and unlabeled, natural C5a (as opposed to recombinant C5a, which, however, may also obviously may be used for these purposes). […] In FIG. 3b, the inverse experiment is shown, wherein ^125 I-C064 is displaced by unlabeled C064 and unlabeled nC5a.
Hexapeptides within this class differing only at position X have similar affinities for the C5a receptor. As measured in competition binding experiments against ^125 I-C5a on human neutrophil membranes their IC50 's varied by only a factor of 3, from 25 to 80 nM (Table II):
^2 Binding experiments were carried out with human neutrophil
Binding is initiated by an addition of 20 μL of PMN membrane (typically 0.5 μg of protein) to each tube. After incubation for 90 min. at room temperature 2 ml of 0.05 M HEPES, pH 7.2, containing 0.5% BSA are added to the tube, the contents vortexed and filtered over a Whatman GF/C filter which has been soaked in 0.3% polyethylenimine. An additional 2 ml of buffer are added to the tube and used to wash the filter. All of the test samples are dissolved in DMSO, another water miscible organic solvent, or in an aqueous solvent. Non-specific background was determined by inclusion of a 100-fold excess of unlabeled C5a.
The percent inhibition is calculated according to the following formula: [formula]
Iodination of C5a was carded out with the use of chloramine T. (Rollins, T.E., and Springer, M.S. (1985) J. Biol. Chem. 260, 7157-7160). […] Concentrations of C5a were determined by amino acid analysis and by RIA (Amersham Corp.). Membranes were prepared from human PMN as described by Rollins, T.E., Sciliano, S and Springer, M.S., J. Biol Chem 264 520-526 (1988).

The subject of assay [2] is human neutrophils. The assay is described as follows: Ligand induced Ca2+ flux (Indo-1 fluorescence). The assay is classed as cell-based. Particulars: FIG. 5B. How it is done: (§1) FIG. 5A and 5B. Degranulation and Ca^2+ responses to the hexapeptides. […] The ED50 's for the degranulation are: C5a, 0.5 nM; C028, 0.2 μM; C026, 1 μM. C5a, maximally, released 57% of the total cellular content of MPO. The ability of these molecules to elicite a Ca^2+ -flux is shown in B. The concentrations used for C028 (10 μM), C026 (10 μM), C061 (100 μM) are those which produce a maximal flux. A saturating concentration was also used for C5a (1 nM).
Ligand induced Ca^2+ fluxes were measured by following the change in Indo-1 induced fluorescence on a FACS analyzer as previously described (Van Riper, G., Siciliano, S. J., Fischer, P. A., Meurer, R., Springer, M. S. and Rosen, H. (1993) J. Exp. Med. 177, 851-856.).
FIG. 5B compares the maximal effects of each peptide (10-100 μM) with the response induced by C5a (1 nM).
For orientation: Calcium flux is commonly read through the fluorescence of an indicator in the cells.

Assay [3] concerns human neutrophils. The assay is described as follows: Degranulation, myeloperoxidase (MPO) release from human neutrophils (agonism). The assay is classed as cell-based. Particulars: for EC50: MPO release, read-out: ED50 for degranulation; for EC50/IC50 (degranulation/binding): ratio degranulation EC50 to binding IC50. Here is the method:
as §1
This assay was performed on human neutrophils as previously reported and it is a measure of C5a or peptide induced exocytosis (Rollins, T. E. and Springer, M. S. (1985) J. Biol. Chem. 260, 7157-7160).
The functional properties of two of the peptides, C026, and C028, were originally described by Mollison et. al (Mollison, K. W., Krause, R. A., Fey, T. A., Miller, L., Wiedeman, P. e., Kawai, M., Lane, B., Luly, J. R. and Carter, G. W. (1992) FASEB J. 6, A2058). […] We have reinvestigated the degranulating activities of these peptides as measured by the release of myeloperoxidase (MPO) from human neutrophils. […] The EC50 /IC50 (degranulation/binding) for C028 is 8, the same as that measured for C5a (Table II, FIG. 5A). […] However, the difference in activity between C026 and C028 is significant and reproducible. Since the structural difference between the two is the substitution of an aromatic for an aliphatic residue (Phe for Cha) we chose to make additional changes at position 5 which further increased aromaticity. […] To further examine whether the differences in activity between the peptides reflects the increased aromaticity we synthesized a molecule with Leu, an aliphatic amino acid, at position 5 (C068, Table II).

Where [4] appears, read: maximal effects, peptide 10-100 μM vs 1 nM C5a.
Setting [5] is: Table II, human neutrophil membranes, competition against 125I-C5a, read-out: Binding IC50.

As a reminder, the Ki is a dissociation constant, usually derived from enzyme kinetics or from competition with a known ligand. As usually defined, the IC50 is the concentration at which inhibition is half-maximal.

Turning to `CC(C)C[C@H](NC(=O)[C@H](CC1CCCCC1)NC(=O)[C@H](CC1CCCCC1)NC(=O)[C@H](C)NC(=O)[C@H](CCCCN)NC(=O)[C@H](Cc1ccccc1)NC(=O)[C@@H](N)Cc1ccc(O)cc1)C(=O)N[C@H](Cc1ccccc1)C(=O)N[C@@H](CCCNC(=N)N)C(=O)O` [C009, Tyr Phe Lys Ala Cha Cha Leu dPhe Arg] (H-YFKA[Cha][Cha]L[dF]R-OH), in assay [1], the inhibition constant Ki is 8 nM.

As to `CN[C@@H](Cc1ccccc1)C(=O)N[C@@H](CCCCN)C(=O)N1CCC[C@H]1C(=O)N[C@H](CC1CCCCC1)C(=O)N[C@@H](Cc1ccccc1)C(=O)N[C@H](CCCNC(=N)N)C(=O)O` [C026, NMeF--K--P-dCha-F-dR] (H-[NMeF]KP[dCha]F[dR]-OH), the “concentration which produces a maximal Ca2+ flux” value in assay [2] is 10 µM. Further, the “Ca2+ response relative to C028 and C5a” value in assay [2] (setting [4]) came out at 50%. In addition, the 50% inhibitory concentration (IC50) in assay [1] (setting [5]) turned out to be 50 nM. Moreover, in assay [3] (FIG. 5A), the “degranulating activity in words” value is “partial agonist for degranution induction; also recorded: retains substantial degranulating activity” and the EC50 was 1000 nM. Besides, in assay [3] (maximal effect, FIG. 5A), the “MPO release relative to the maximal release produced by C5a or C028” value was 50%. Further, the “EC50/IC50 (degranulation/binding)” value in assay [3] is 20.

As for `CN[C@@H](Cc1ccccc1)C(=O)N[C@@H](CCCCN)C(=O)N1CCC[C@H]1C(=O)N[C@H](CC1CCCCC1)C(=O)N[C@@H](CC1CCCCC1)C(=O)N[C@H](CCCNC(=N)N)C(=O)O` [C028, MePhe Lys Pro dCha Cha dArg] (H-[NMeF]KP[dCha][Cha][dR]-OH), the “concentration which produces a maximal Ca2+ flux” value in assay [2] was determined as 10 µM. In addition, the “Ca2+ response in words” value in assay [2] (setting [4]) was “comparable elevations in Ca^2+ level”. In addition, the IC50 in assay [1] (setting [5]) amounted to 25 nM. In assay [3] (FIG. 5A), the “degranulating activity in words” value is on record as “full agonist for degranulation” and the EC50 came to 200 nM. For the same molecule, the “EC50/IC50 (degranulation/binding)” value in assay [3] is reported as 8.

Consider `CN[C@@H](Cc1ccccc1)C(=O)N[C@@H](CCCCN)C(=O)N1CCC[C@H]1C(=O)N[C@H](CC1CCCCC1)C(=O)N[C@@H](Cc1cccc2ccccc12)C(=O)N[C@H](CCCNC(=N)N)C(=O)O` [C061] (H-[NMeF]KP[dCha][1Nal][dR]-OH), for which, in assay [2], the “concentration which produces a maximal Ca2+ flux” value stood at 100 µM. For the same molecule, in assay [2] (setting [4]), the “Ca2+ response in words” value is “only a very small increase in intracellular Ca^2+ levels; also recorded: small increase in the level of intracellular Ca^2+”. In addition, the IC50 in assay [1] (setting [5]) came out at 80 nM. In assay [3] (FIG. 5A), the “degranulating activity in words” value was “totally devoid of degranulating activity”.

For `CN[C@@H](Cc1ccccc1)C(=O)N[C@@H](CCCCN)C(=O)N1CCC[C@H]1C(=O)N[C@H](CC1CCCCC1)C(=O)N[C@@H](Cc1c[nH]c2ccccc12)C(=O)N[C@H](CCCNC(=N)N)C(=O)O` [C089], the “Ca2+ response in words” value in assay [2] (setting [4]) is reported as “fails to stimulate a detectable change in Ca^2+ level”. In addition, the “binding affinity in words” value in assay [1] was “excellent ability to inhibit C5a binding”. The “degranulating activity in words” value in assay [3] (FIG. 5A) is recorded as “totally devoid of degranulating activity”.

B1: C5a: 74 amino acid protein derived from the fifth component of serum complement during complement activation (protein, UniProt P01031 678-751, looked up)
C5a anaphylatoxin: TLQKKIEEIAAKYKHSVVKKCCYDGACVNNDETCEQRAARISLGPRCIKAFTECCVVASQLRANISHKDMQLGR
modifications: C5a anaphylatoxin
For B1, the “Ca2+ response in words” value in assay [2] (setting [4]) was “comparable elevations in Ca^2+ level”. In addition, the IC50 in assay [1] (setting [5]) was 0.03 nM; in assay [1] (labeled ligand 125I-C5a, read-out: IC50 exhibited by the unlabeled ligand), 0.066 nM. For the same molecule, in assay [3] (0.4 nM C5a or 8 nM IL-8, cells without C089), the “release of total cellular MPO” value amounted to 22%. In addition, the EC50 in assay [3] (FIG. 5A) is 0.5 nM. Also, the “maximal release of total cellular content of MPO” value in assay [3] (maximal, FIG. 5A) stood at 57%. For the same molecule, the “EC50/IC50 (degranulation/binding)” value in assay [3] amounted to 8.
